Reference: patent US7868135B2, “Compositions of lipopeptide antibiotic derivatives and methods of use thereof” (priority 2003, dated 2011)
Starred links: 1 amine or outer side, 2 acyl side, 3 side chain; linkers in the order of their positions; H or OH if unused. Positions of bridges follow the written chain, without caps; N, C: chain ends. Non-standard residues stand in square brackets, D forms with d. Residues, ends and D or L forms follow the SMILES beside them. Groups on a side chain read outwards from the residue. ξ: configuration not given here. *: point of attachment. ξAbu(βξ-NH2) = CC(N[*:3])C(N[*:1])C(=O)[*:2]; Pentadecanoyl = CCCCCCCCCCCCCCC(=O)*; X8 = O=C(/C=C/c1ccc(N[*:1])cc1)[*:2]; Bta = N[C@@H](Cc1csc2ccccc12)C(=O)O; ξAsp(βξ-Me) = CC(C(=O)O)C(N)C(=O)O; X1 = O=C(Cc1ccc(N[*:1])cc1)[*:2]; X13 = O=C(CCCCCCCCCCOc1ccccc1)*; ξAbu(3ξ-NH2) = CC(N)C(N)C(=O)O; Lauroyl = CCCCCCCCCCCC(=O)*; Decanoyl = CCCCCCCCCC(=O)*; 4Abz = Nc1ccc(C(=O)O)cc1; Dab = NCC[C@H](N)C(=O)O; Pip = O=C(O)[CH]1CCCCN1; ξD = NC(CC(=O)O)C(=O)O; ξPip = O=C(O)C1CCCCN1; ξV = CC(C)C(N)C(=O)O; ξP = O=C(O)C1CCCN1; Sar = CNCC(=O)O

The compounds below were run on Staphylococcus aureus (MSSA). Conditions: 24 h.
In short: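 Broth microdilution MIC per NCCLS M7-A6 with doubling serial dilutions, in cation-adjusted Mueller-Hinton broth supplemented with 0.625 mM calcium.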

SMILES	MIC
CCCCCCCCCCCCCCC(=O)N[C@H](C(=O)NC(CC(=O)O)C(=O)NC1C(=O)N2CCCCC2C(=O)NC(C(C)C(=O)O)C(=O)NC(CC(=O)O)C(=O)NCC(=O)NC(CC(=O)O)C(=O)NCC(=O)NC(C(C)N)C(=O)NC(C(C)C)C(=O)N2CCCC2C(=O)NC1C)c1ccccc1 (some centres unmarked) [Compound 115, C15-Phg-Amphomycin]	2 µg/mL
CCCCCCCCCCCCCCC(=O)N[C@H](Cc1ccccc1)C(=O)NC(CC(=O)O)C(=O)NC1C(=O)N2CCCCC2C(=O)NC(C(C)C(=O)O)C(=O)NC(CC(=O)O)C(=O)NCC(=O)NC(CC(=O)O)C(=O)NCC(=O)NC(C(C)N)C(=O)NC(C(C)C)C(=O)N2CCCC2C(=O)NC1C (stereo partly drawn) [Compound 116, C15-(D-Phe)-Amphomycin] (Pentadecanoyl-[dF][ξD][ξAbu(βξ-NH2)][ξPip][ξAsp(βξ-Me)][ξD]G[ξD]G[ξAbu(3ξ-NH2)][ξV][ξP]; lactam 3-C)	1 µg/mL
CC(C)C1NC(=O)C(C(C)N)NC(=O)CNC(=O)C(CC(=O)O)NC(=O)CNC(=O)C(CC(=O)O)NC(=O)C(C(C)C(=O)O)NC(=O)C2CCCCN2C(=O)C(NC(=O)C(CC(=O)O)NC(=O)CNC(=O)CCCCCCCCCCOc2ccccc2)C(C)NC(=O)C2CCCN2C1=O (stereo not drawn) [Compound 117, Ph-O—(CH2)11-Gly-Amphomycin] (X13-GD[ξAbu(βξ-NH2)][Pip][ξAsp(βξ-Me)]DGDG[ξAbu(3ξ-NH2)]VP; lactam 3-C; configuration not given here; N-terminus assumed)	8 µg/mL
CCCCCCCCCC(=O)N[C@@H](Cc1csc2ccccc12)C(=O)NC(CC(=O)O)C(=O)NC1C(=O)N2CCCCC2C(=O)NC(C(C)C(=O)O)C(=O)NC(CC(=O)O)C(=O)NCC(=O)NC(CC(=O)O)C(=O)NCC(=O)NC(C(C)N)C(=O)NC(C(C)C)C(=O)N2CCCC2C(=O)NC1C (stereo partly drawn) [Compound 118, C10-(L-BBTA)-Amphomycin] (Decanoyl-[Bta][ξD][ξAbu(βξ-NH2)][ξPip][ξAsp(βξ-Me)][ξD]G[ξD]G[ξAbu(3ξ-NH2)][ξV][ξP]; lactam 3-C)	2 µg/mL
CCCCCCCCCCCC(=O)Nc1ccc(/C=C/C(=O)NC(CC(=O)O)C(=O)NC2C(=O)N3CCCCC3C(=O)NC(C(C)C(=O)O)C(=O)NC(CC(=O)O)C(=O)NCC(=O)NC(CC(=O)O)C(=O)NCC(=O)NC(C(C)N)C(=O)NC(C(C)C)C(=O)N3CCCC3C(=O)NC2C)cc1 (stereo not drawn) [Compound 120, C12-(p-Amino-Trans-Cinnamyl)-Amphomycin] (Lauroyl-[X8]D[ξAbu(βξ-NH2)][Pip][ξAsp(βξ-Me)]DGDG[ξAbu(3ξ-NH2)]VP; lactam 3-C; configuration not given here)	0.5 µg/mL
CCCCCCCCCC(=O)Nc1ccc(CC(=O)NC(CC(=O)O)C(=O)NC2C(=O)N3CCCCC3C(=O)NC(C(C)C(=O)O)C(=O)NC(CC(=O)O)C(=O)NCC(=O)NC(CC(=O)O)C(=O)NCC(=O)NC(C(C)N)C(=O)NC(C(C)C)C(=O)N3CCCC3C(=O)NC2C)cc1 (stereo not drawn) [Compound 122, CH3—(CH2)9-(p-Apa)-Amphomycin] (Decanoyl-[X1]D[ξAbu(βξ-NH2)][Pip][ξAsp(βξ-Me)]DGDG[ξAbu(3ξ-NH2)]VP; lactam 3-C; configuration not given here; N-terminus assumed)	8 µg/mL
CCCCCCCCCCCC(=O)Nc1ccc(C(=O)NCC(=O)NC(CC(=O)O)C(=O)NC2C(=O)N3CCCCC3C(=O)NC(C(C)C(=O)O)C(=O)NC(CC(=O)O)C(=O)NCC(=O)NC(CC(=O)O)C(=O)NCC(=O)NC(C(C)N)C(=O)NC(C(C)C)C(=O)N3CCCC3C(=O)NC2C)cc1 (stereo not drawn) [Compound 123, C12-PABA-Gly-Amphomycin] ({Lauroyl-4Abz}-GD[ξAbu(βξ-NH2)][Pip][ξAsp(βξ-Me)]DGDG[ξAbu(3ξ-NH2)]VP; lactam 3-C; configuration not given here)	1 µg/mL
CCCCCCCCCCCCCCC(=O)NC(CC(=O)O)C(=O)NC1C(=O)N2CCCCC2C(=O)NC(C(C)C(=O)O)C(=O)NC(CC(=O)O)C(=O)NCC(=O)NC(CC(=O)O)C(=O)NCC(=O)NC(C(C)NC(=O)CN(C)C(=O)[C@@H](N)CCCN)C(=O)NC(C(C)C)C(=O)N2CCCC2C(=O)NC1C (some centres unmarked) [Compound 144, C15-Amphomycin-9-Sar-Orn]	4 µg/mL
CCCCCCCCCCCCCCC(=O)NC(CC(=O)O)C(=O)NC1C(=O)N2CCCCC2C(=O)NC(C(C)C(=O)O)C(=O)NC(CC(=O)O)C(=O)NCC(=O)NC(CC(=O)O)C(=O)NCC(=O)NC(C(C)NC(=O)CN(C)C(=O)[C@@H](N)CCN)C(=O)NC(C(C)C)C(=O)N2CCCC2C(=O)NC1C (stereo partly drawn) [Compound 145, C15-Amphomycin-9-Sar-gDab] (Pentadecanoyl-[ξD][ξAbu(βξ-NH2)][ξPip][ξAsp(βξ-Me)][ξD]G[ξD]G[ξAbu(βξ-NH2)]([Sar-Dab])[ξV][ξP]; lactam 2-C)	2 µg/mL
CCCCCCCCCCCCCCC(=O)NC(CC(=O)O)C(=O)NC1C(=O)N2CCCCC2C(=O)NC(C(C)C(=O)O)C(=O)NC(CC(=O)O)C(=O)NCC(=O)NC(CC(=O)O)C(=O)NCC(=O)NC(C(C)NC(=O)CN(C)C(=O)[C@@H](N)CN)C(=O)NC(C(C)C)C(=O)N2CCCC2C(=O)NC1C (some centres unmarked) [Compound 146, C15-Amphomycin-9-Sar-Dap]	2 µg/mL
CCCCCCCCCCCCCCC(=O)NC(CC(=O)O)C(=O)NC1C(=O)N2CCCCC2C(=O)NC(C(C)C(=O)O)C(=O)NC(CC(=O)O)C(=O)NCC(=O)NC(CC(=O)O)C(=O)NCC(=O)NC(C(C)NC(=O)CCNC(=O)[C@@H](N)CCCN)C(=O)NC(C(C)C)C(=O)N2CCCC2C(=O)NC1C (stereo partly drawn) [Compound 148, C15-Amphomycin-9-(β-Ala)-Orn]	0.5 to 1 µg/mL
CCCCCCCCCCCCCCC(=O)NC(CC(=O)O)C(=O)NC1C(=O)N2CCCCC2C(=O)NC(C(C)C(=O)O)C(=O)NC(CC(=O)O)C(=O)NCC(=O)NC(CC(=O)O)C(=O)NCC(=O)NC(C(C)NC(=O)[C@H]2CCCN2C(=O)[C@H](N)CCCCN)C(=O)NC(C(C)C)C(=O)N2CCCC2C(=O)NC1C (stereo partly drawn) [Compound 151, C15-Amphomycin-9-(D-Pro)-(D-Lys)]	16 µg/mL
CCCCCCCCCCCCCCC(=O)NC(CC(=O)O)C(=O)NC1C(=O)N2CCCCC2C(=O)NC(C(C)C(=O)O)C(=O)NC(CC(=O)O)C(=O)NCC(=O)NC(CC(=O)O)C(=O)NCC(=O)NC(C(C)NC(=O)CNC(=O)[C@@H](N)CCCN)C(=O)NC(C(C)C)C(=O)N2CCCC2C(=O)NC1C (some centres unmarked) [Compound 153, C15-Amphomycin-9-Gly-Orn]	2 µg/mL
CCCCCCCCCCCCCCC(=O)NC(CC(=O)O)C(=O)NC1C(=O)N2CCCCC2C(=O)NC(C(C)C(=O)O)C(=O)NC(CC(=O)O)C(=O)NCC(=O)NC(CC(=O)O)C(=O)NCC(=O)NC(C(C)NC(=O)CNC(=O)[C@@H](N)CCN)C(=O)NC(C(C)C)C(=O)N2CCCC2C(=O)NC1C (some centres unmarked) [Compound 154, C15-Amphomycin-9-Gly-gDab]	4 µg/mL
CCCCCCCCCCCCCCC(=O)NC(CC(=O)O)C(=O)NC1C(=O)N2CCCCC2C(=O)NC(C(C)C(=O)O)C(=O)NC(CC(=O)O)C(=O)NCC(=O)NC(CC(=O)O)C(=O)NCC(=O)NC(C(C)NC(=O)CCNC(=O)[C@@H](N)CCCCN)C(=O)NC(C(C)C)C(=O)N2CCCC2C(=O)NC1C (stereo partly drawn) [Compound 155, C15-Amphomycin-9-(β-Ala)-Lys]	8 µg/mL
CCCCCCCCCCCCCCC(=O)NC(CC(=O)O)C(=O)NC1C(=O)N2CCCCC2C(=O)NC(C(C)C(=O)O)C(=O)NC(CC(=O)O)C(=O)NCC(=O)NC(CC(=O)O)C(=O)NCC(=O)NC(C(C)NC(=O)CCCNC(=O)[C@@H](N)CCCCN)C(=O)NC(C(C)C)C(=O)N2CCCC2C(=O)NC1C (some centres unmarked) [Compound 156, C15-Amphomycin-9-GABA-Lys]	1 µg/mL

Same assay, conditions: S. aureus (MSSA), CAMHB supplemented with 0.625 mM calcium, 24 hours at about 37° C.; a range = compound tested multiple times

SMILES	MIC
CCCCCCCCCCCCCC(=O)NC(CC(=O)O)C(=O)NC1C(=O)N2CCCCC2C(=O)NC(C(C)C(=O)O)C(=O)NC(CC(=O)O)C(=O)NCC(=O)NC(CC(=O)O)C(=O)NCC(=O)NC(C(C)NC(=O)CNC(=O)[C@@H](N)CCCCN)C(=O)NC(C(C)C)C(=O)N2CCCC2C(=O)NC1C (some centres unmarked) [Compound 125, C14-Amphomycin-9-Gly-Lys]	125/1-2 μg/mL
CCCCCCCCCCCCCC(=O)NC(CC(=O)O)C(=O)NC1C(=O)N2CCCCC2C(=O)NC(C(C)C(=O)O)C(=O)NC(CC(=O)O)C(=O)NCC(=O)NC(CC(=O)O)C(=O)NCC(=O)NC(C(C)NC(=O)[C@@H](N)CCCN)C(=O)NC(C(C)C)C(=O)N2CCCC2C(=O)NC1C (some centres unmarked) [Compound 127, C14-Amphomycin-9-Orn]	127/4 μg/mL
CCCCCCCCCCCCC(=O)NC(CC(=O)O)C(=O)NC1C(=O)N2CCCCC2C(=O)NC(C(C)C(=O)O)C(=O)NC(CC(=O)O)C(=O)NCC(=O)NC(CC(=O)O)C(=O)NCC(=O)NC(C(C)NC(=O)[C@@H](N)CCCN)C(=O)NC(C(C)C)C(=O)N2CCCC2C(=O)NC1C (some centres unmarked) [Compound 134, C13-Amphomycin-9-Orn]	134/32 μg/mL
CCCCCCCCCCCCC(=O)NC(CC(=O)O)C(=O)NC1C(=O)N2CCCCC2C(=O)NC(C(C)C(=O)O)C(=O)NC(CC(=O)O)C(=O)NCC(=O)NC(CC(=O)O)C(=O)NCC(=O)NC(C(C)NC(=O)[C@@H](N)CN)C(=O)NC(C(C)C)C(=O)N2CCCC2C(=O)NC1C (some centres unmarked) [Compound 136, C13-Amphomycin-9-Dap]	136/4 μg/mL
CCCCCCCCCCCCCC(=O)NC(CC(=O)O)C(=O)NC1C(=O)N2CCCCC2C(=O)NC(C(C)C(=O)O)C(=O)NC(CC(=O)O)C(=O)NCC(=O)NC(CC(=O)O)C(=O)NCC(=O)NC(C(C)NC(=O)[C@@H](N)CN)C(=O)NC(C(C)C)C(=O)N2CCCC2C(=O)NC1C (some centres unmarked) [Compound 140, C14-Amphomycin-9-Dap]	140/32 μg/mL
CCCCCCCCCCCCCCCC(=O)NC(CC(=O)O)C(=O)NC1C(=O)N2CCCCC2C(=O)NC(C(C)C(=O)O)C(=O)NC(CC(=O)O)C(=O)NCC(=O)NC(CC(=O)O)C(=O)NCC(=O)NC(C(C)NC(=O)CNC(=O)[C@@H](N)CCCCN)C(=O)NC(C(C)C)C(=O)N2CCCC2C(=O)NC1C (some centres unmarked) [Compound 141, C16-Amphomycin-9-Gly-Lys]	141/2 μg/mL
CCCCCCCCCCCC(=O)NC(CC(=O)O)C(=O)NC1C(=O)N2CCCCC2C(=O)NC(C(C)C(=O)O)C(=O)NC(CC(=O)O)C(=O)NCC(=O)NC(CC(=O)O)C(=O)NCC(=O)NC(C(C)NC(=O)CNC(=O)[C@@H](N)CCCCN)C(=O)NC(C(C)C)C(=O)N2CCCC2C(=O)NC1C (some centres unmarked) [Compound 143, C12-Amphomycin-9-Gly-Lys]	143/2-4 μg/mL
